One series concerns the target SARS-CoV-2 PL^Pro (Severe acute respiratory syndrome coronavirus 2, UniProt P0DTD1). Description: Determination of IC50 values for SARS-CoV-2 PL^Pro (Z-RLRGG-AMC substrate). Conditions: 30 nM PL^Pro, 20 min preincubation; read-out: PL^Pro IC50. It is filed as biochemical.
The target in series [1] is T1, SARS-CoV-2 M^Pro (Severe acute respiratory syndrome coronavirus 2, UniProt P0DTD1). Description: Determination of IC50 values for SARS-CoV-2 M^Pro (fluorogenic peptide substrate, end-point). It counts as biochemical. Conditions: 12.5 nM M^Pro, 20 min preincubation, 30 μM substrate; read-out: M^Pro IC50.
Series [2] addresses T1, SARS-CoV-2 M^Pro. Description: Determination of KI values for SARS-CoV-2 M^Pro (initial velocity, competitive inhibition). It counts as biochemical. Conditions: competitive inhibition, initial velocity; read-out: M^Pro Ki.
The target of series [3] is T1, SARS-CoV-2 M^Pro. Description: Determination of kinact/KI values for SARS-CoV-2 M^Pro (time- and concentration-dependent inactivation). It is filed as biochemical. The procedure:
where νo is the initial velocity of uninhibited reaction and νi is the initial velocity in the presence of inhibitor. All measurements were done in triplicate. Determination of kinact/KI values for SARS-CoV-2 M^Pro
Time- and concentration-dependent inactivation assays were done by following a similar protocol as described for Ki determination. M^Pro (12.5 nM final) was treated with the peptide-substrate (30 μM final) and test inhibitor (0-80 μM for D-FF(R/Cit)-(CMK/CMKyne); 0-1.25 mM for SM136-145) at time=0 to initiate inactivation process. The total volume of the assay mixture was 50 μL. Time-dependent increase in fluorescence was monitored at 485 nm with excitation at 340 nm for a period of 20-25 min. The observed rates (kobs) for the peptide cleavage in both the presence and absence of inhibitor were determined by fitting to a single-phase association equation. The resulting kobs values were plotted against the concentrations of inhibitor and linear fits were used to derive the slope that afforded the kinact/KI values. All measurements were done in triplicate.

For the next series, the target named is T2, Cathepsin B (Homo sapiens, UniProt P07858).
T2 construct: purchased Abcam ab185438
Description: Cathepsin B inhibition assay kit (Abcam), IC50. It is filed as biochemical. Conditions: 20 min pretreatment. Here is the method:
(§1) Determination of IC50 and kinact/KI values for Cathepsins L and B
IC50 and kinact/KI values of the inhibitors were determined using commercially available inhibition assay kits (Abcam) by following the manufacturer's protocol. For IC50 values, enzymes were pretreated with test inhibitor (0-50 μM) for 20 min prior to adding the fluorogenic substrate, and end-point fluorescence was recorded after 30 min. For the kinact/KI values, enzymes were treated with inhibitor and substrate simultaneously and increase in fluorescence was monitored over 60 min. The observed rates (kobs) were determined by fitting to a single-phase association equation. The resulting kobs values were plotted against the concentrations of inhibitor and the data were fit to equation 2 to derive the kinact/KI values,
using GraphPad Prism, where kinact is the maximal rate of inactivation, KI is the concentration of inhibitor that affords half-maximal inactivation, and [I] is the concentration of inhibitor. When kobs with [I] varied linearly, kinact/KI was determined from the slope of the line. All the experiments were performed in triplicate. All fluorescence measurements were taken at absorption/emission wavelength of 400/505 nm using an EnVision 2105 plate reader. Crystallization of M^Pro in Complex with Inhibitors

For another series, the target named is T3, Cathepsin L (Homo sapiens, UniProt P07711).
T3 construct: purchased Abcam ab197012
Description: Cathepsin L inhibition assay kit (Abcam), IC50 and kinact/KI. It is filed as biochemical. To be noted: for IC50: 20 min pretreatment; for kinact/KI: read-out: Cathepsin L kinact/KI. The procedure:
as §1
IC50 and kinact/KI values of the inhibitors were determined using commercially available inhibition assay kits (Abcam) by following the manufacturer's protocol. […] The observed rates (kobs) were determined by fitting to a single-phase association equation. The resulting kobs values were plotted against the concentrations of inhibitor and the data were fit to equation 2 to derive the kinact/KI values,
using GraphPad Prism, where kinact is the maximal rate of inactivation, KI is the concentration of inhibitor that affords half-maximal inactivation, and [I] is the concentration of inhibitor. When kobs with [I] varied linearly, kinact/KI was determined from the slope of the line. All the experiments were performed in triplicate. […] Crystallization of M^Pro in Complex with Inhibitors

Another series relates to CYP3A4/5. To be noted: data from medRxiv preprint; cited from earlier work.
The test system of the next series is A549-hACE2 cells. Conditions: Table 2; data from medRxiv preprint; cited from earlier work.
For series [4] the following is noted: data from medRxiv preprint; cited from earlier work.
A further series relates to SARS-CoV-2. Description: microbe, parasite or virus in culture. It counts as cell-based. Conditions: A549-hACE2 cells.

Like-named read-outs stand apart in the source and are kept apart here. Where a SMILES comes first, the peptide text is derived from it.

The source of these data is US20250326715A1, “NOVEL MAIN PROTEASE INHIBITORS, AND COMPOSITIONS AND METHODS THEREOF” (University of Massachusetts, priority 2023, published 2025).

T3 sequence (P07711 114-333): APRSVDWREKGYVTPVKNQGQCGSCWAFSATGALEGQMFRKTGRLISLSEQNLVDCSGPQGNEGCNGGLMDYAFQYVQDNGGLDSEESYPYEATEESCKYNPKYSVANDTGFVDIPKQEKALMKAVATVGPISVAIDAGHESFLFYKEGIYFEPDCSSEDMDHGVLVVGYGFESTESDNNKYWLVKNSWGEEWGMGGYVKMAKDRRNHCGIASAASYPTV

Regarding `N=C(N)NCCC[C@H](NC(=O)[C@H](Cc1ccccc1)NC(=O)[C@H](N)Cc1ccccc1)C(=O)CCl` [D-FFR-CMK] (HELM PEPTIDE1{[dF].F.R.[ClC[*:1]]}$$$$V2.0), the 50% inhibitory concentration (IC50) (commonly the concentration at which inhibition is half-maximal) at SARS-CoV-2 PL^Pro was found to be 5 µM; at SARS-CoV-2 M^Pro [1], 0.1 µM.
Take `CCOC(=O)C=CC(CC1CCNC1=O)NC(=O)C(Cc1ccccc1)NC(=O)C(Cc1ccccc1)NC(=O)OC(C)(C)C` (centres unmarked) [SM140]: at SARS-CoV-2 M^Pro [2], the inhibition constant Ki – broadly, a dissociation constant, usually derived from enzyme kinetics or from competition with a known ligand – was found to be 16 µM. For the same molecule, the kinact/KI on SARS-CoV-2 M^Pro [3] (read-out: M^Pro kinact/KI) came to 150 M⁻¹ s⁻¹. In addition, the IC50 at Cathepsin B was > 50 µM; on SARS-CoV-2 PL^Pro, > 50 µM; at SARS-CoV-2 M^Pro [1] it was 2.2 µM.
With `CCOC(=O)C=CC(CC1CCNC1=O)NC(=O)C(Cc1ccccc1)NC(=O)C(N)Cc1ccc(F)cc1` (centres unmarked) [SM143], the Ki at SARS-CoV-2 M^Pro [2] was found to be 7 µM. Moreover, the kinact/KI amounted to 350 M⁻¹ s⁻¹ at SARS-CoV-2 M^Pro [3] (read-out: M^Pro kinact/KI) and 2330 M⁻¹ s⁻¹ at Cathepsin L. Moreover, the IC50 is > 50 µM at Cathepsin B, > 50 µM at SARS-CoV-2 PL^Pro, 0.9 µM at SARS-CoV-2 M^Pro [1] and 0.073 µM at Cathepsin L.
With `CCOC(=O)C=CC(CC1CCNC1=O)NC(=O)C(Cc1ccc(F)cc1)NC(=O)C(N)Cc1ccc(F)cc1` (centres unmarked) [SM139], the Ki on SARS-CoV-2 M^Pro [2] came out at 65 µM. Moreover, the kinact/KI at SARS-CoV-2 M^Pro [3] (read-out: M^Pro kinact/KI) was found to be 25 M⁻¹ s⁻¹. On SARS-CoV-2 M^Pro [1], the IC50 was 10 µM.
On to `CC(C)(C)[C@H](NC(=O)C(F)(F)F)C(=O)N1C[C@H]2[C@@H]([C@H]1C(=O)N[C@H](C#N)C[C@@H]1CCNC1=O)C2(C)C` [nirmatrelvir], for which, in the series on CYP3A4/5, the CYP3A4/5 metabolism result is on record as “HIGH”. Besides, the cytoxcity in the series on A549-hACE2 cells was >3 µM. The “Fa × Fg” value in [4] is listed as 95%.
Take `NC(=O)NCCC[C@H](NC(=O)[C@H](Cc1ccccc1)NC(=O)[C@H](N)Cc1ccccc1)C(=O)CCl` [D-FFCit-CMK] (HELM PEPTIDE1{[dF].F.[Cit].[ClC[*:1]]}$$$$V2.0): the values for the IC50 on SARS-CoV-2 PL^Pro and on SARS-CoV-2 M^Pro [1] were > 50 µM and 0.13 µM, respectively.
As for `CCOC(=O)C=CC(CC1CCNC1=O)NC(=O)C(Cc1ccc(F)cc1)NC(=O)C(Cc1ccccc1)NC(=O)OC(C)(C)C` (centres unmarked) [SM136], at SARS-CoV-2 M^Pro [2], the Ki amounted to 73 µM. For the same molecule, the kinact/KI on SARS-CoV-2 M^Pro [3] (read-out: M^Pro kinact/KI) worked out at 12.8 M⁻¹ s⁻¹. Moreover, the IC50 at SARS-CoV-2 M^Pro [1] was found to be 20 µM.
On to `CCOC(=O)C=CC(CC1CCNC1=O)NC(=O)C(Cc1ccc(F)cc1)NC(=O)C(Cc1ccc(F)cc1)NC(=O)OC(C)(C)C` (centres unmarked) [SM138], for which the kinact/KI at SARS-CoV-2 M^Pro [3] (read-out: M^Pro kinact/KI) came out at 10.8 M⁻¹ s⁻¹.
In the case of `CCOC(=O)C=CC(CC1CCNC1=O)NC(=O)C(Cc1ccc(F)cc1)NC(=O)C(N)Cc1ccccc1` (centres unmarked) [SM137], the Ki at SARS-CoV-2 M^Pro [2] stood at 50 µM. The kinact/KI on SARS-CoV-2 M^Pro [3] (read-out: M^Pro kinact/KI) is 30 M⁻¹ s⁻¹. Moreover, at SARS-CoV-2 M^Pro [1], the IC50 was determined as 10 µM.
Regarding `C#CCOCCC(=O)NC(Cc1ccccc1)C(=O)NC(Cc1ccccc1)C(=O)NC(C=CC(=O)OCC)CC1CCNC1=O` (centres unmarked) [SM145], at SARS-CoV-2 M^Pro [2], the Ki came out at 5.3 µM. Also, the kinact/KI at SARS-CoV-2 M^Pro [3] (read-out: M^Pro kinact/KI) came out at 400 M⁻¹ s⁻¹; on SARS-CoV-2 M^Pro [3] (read-out: second-order rate constant for enzyme inactivation (kinact/KI), M^Pro) it was 400 M⁻¹ s⁻¹; at Cathepsin L, 417 M⁻¹ s⁻¹. Further, the IC50 on Cathepsin B is > 50 µM; at SARS-CoV-2 PL^Pro, > 50 µM; at SARS-CoV-2 M^Pro [1], 0.8 µM; on Cathepsin L, 0.2 µM. Besides, the “antiviral activity compared with SM141 and SM142” value in the series with SARS-CoV-2 was “significantly lower antiviral activity than SM141 and SM142”.
